Calls of active or inactive are those of the source. The calls are words filed in the database; no cut-off is given here.
How the values were obtained:
[1] = test system: MDA-MB-231; assay: Antitumor activity against docetaxel-resistant human MDA-MB-231-DTR cells xenografted in BALB/c mouse assessed as reduction in tumor volume at 5 mg/kg, ip daily for 12 days in presence of N-(2-(1H-Indol-3-yl)ethyl)-1-(4-bromobenzoyl)-9H-pyrido(3,4-b)indole-3-carboxamide; assay type: functional, organism-based; conditions: time 12.0 day
[2] = Synergistic antiproliferative activity against docetaxel-resistant human MDA-MB-231-DTR cells assessed as combination index at 4 uM incubated for 72 hrs in presence of 4 uM of N-(2-(1H-Indol-3-yl)ethyl)-1-(4-bromobenzoyl)-9H-pyrido(3,4-b)indole-3-carboxamide by Chou-Talalay method; assay type: functional
[3] = Fold resistance, ratio of IC50 for antiproliferative activity against docetaxel-resistant human MDA-MB-231-DTR cells to IC50 for antiproliferative activity against human MDA-MB-231 cells; assay type: functional
[4] = Synergistic antiproliferative activity against docetaxel-resistant human MDA-MB-231-DTR cells assessed as combination index at 4 uM incubated for 72 hrs in presence of 8 uM of N-(2-(1H-Indol-3-yl)ethyl)-1-(4-bromobenzoyl)-9H-pyrido(3,4-b)indole-3-carboxamide by Chou-Talalay method; assay type: functional
[5] = Synergistic antiproliferative activity against docetaxel-resistant human MDA-MB-231-DTR cells assessed as combination index at 2 uM incubated for 72 hrs in presence of 2 uM of N-(2-(1H-Indol-3-yl)ethyl)-1-(4-bromobenzoyl)-9H-pyrido(3,4-b)indole-3-carboxamide by Chou-Talalay method; assay type: functional
[6] = Antiproliferative activity against docetaxel-resistant human MDA-MB-231-DTR cells assessed as reduction in cell viability incubated for 72 hrs by sulforhodamine B assay; assay type: functional, cell-based; conditions: MDA-MB-231, 72 h
[7] = Synergistic antiproliferative activity against docetaxel-resistant human MDA-MB-231-DTR cells assessed as combination index at 1 uM incubated for 72 hrs in presence of 2 uM of N-(2-(1H-Indol-3-yl)ethyl)-1-(4-bromobenzoyl)-9H-pyrido(3,4-b)indole-3-carboxamide by Chou-Talalay method; assay type: functional
[8] = Synergistic antiproliferative activity against docetaxel-resistant human MDA-MB-231-DTR cells assessed as combination index at 2 uM incubated for 72 hrs in presence of 4 uM of N-(2-(1H-Indol-3-yl)ethyl)-1-(4-bromobenzoyl)-9H-pyrido(3,4-b)indole-3-carboxamide by Chou-Talalay method; assay type: functional
[9] = Synergistic antiproliferative activity against docetaxel-resistant human MDA-MB-231-DTR cells assessed as combination index at 2 uM incubated for 72 hrs in presence of 8 uM of N-(2-(1H-Indol-3-yl)ethyl)-1-(4-bromobenzoyl)-9H-pyrido(3,4-b)indole-3-carboxamide by Chou-Talalay method; assay type: functional
[10] = Synergistic antiproliferative activity against docetaxel-resistant human MDA-MB-231-DTR cells assessed as combination index at 4 uM incubated for 72 hrs in presence of 2 uM of N-(2-(1H-Indol-3-yl)ethyl)-1-(4-bromobenzoyl)-9H-pyrido(3,4-b)indole-3-carboxamide by Chou-Talalay method; assay type: functional
[11] = Synergistic antiproliferative activity against docetaxel-resistant human MDA-MB-231-DTR cells assessed as combination index at 1 uM incubated for 72 hrs in presence of 8 uM of N-(2-(1H-Indol-3-yl)ethyl)-1-(4-bromobenzoyl)-9H-pyrido(3,4-b)indole-3-carboxamide by Chou-Talalay method; assay type: functional
[12] = test system: MDA-MB-231; assay: Antitumor activity against docetaxel-resistant human MDA-MB-231-DTR cells xenografted in BALB/c mouse assessed as tumor growth inhibition at 5 mg/kg, ip daily for 12 days; assay type: functional, organism-based; conditions: time 12.0 day
[13] = Synergistic antiproliferative activity against docetaxel-resistant human MDA-MB-231-DTR cells assessed as combination index at 1 uM incubated for 72 hrs in presence of 4 uM of N-(2-(1H-Indol-3-yl)ethyl)-1-(4-bromobenzoyl)-9H-pyrido(3,4-b)indole-3-carboxamide by Chou-Talalay method; assay type: functional
[14] = test system: MDA-MB-231; assay: Antiproliferative activity against human MDA-MB-231 cells transfected with STAT3 plasmid to overexpress STAT3 assessed as effect on cell viability at 10 to 80 nM incubated for 72 hrs by MTT assay; assay type: functional, cell-based; conditions: dose 10-80 nM
[15] = test system: MDA-MB-231; assay: Antiproliferative activity against human MDA-MB-231 cells assessed as reduction in cell viability incubated for 72 hrs by MTT assay; assay type: functional, cell-based; conditions: MDA-MB-231, 72 h
[16] = test system: MDA-MB-231; assay: Antiproliferative activity against SiRNA mediated STAT3 knockdown docetaxel-resistant human MDA-MB-231-DTR cells assessed as restoration of drug sensitivity by measuring cell viability at 0.5 to 4 uM incubated for 72 hrs by MTT assay; assay type: functional, cell-based; conditions: dose 0.5-4 µM
[17] = Antiproliferative activity against docetaxel-resistant human MDA-MB-231-DTR cells assessed as reduction in cell viability incubated for 72 hrs by MTT assay; assay type: functional, cell-based; conditions: MDA-MB-231, 72 h
[18] = test system: MDA-MB-231; assay: Antitumor activity against docetaxel-resistant human MDA-MB-231-DTR cells xenografted in BALB/c mouse assessed as reduction in tumor weight at 5 mg/kg, ip daily for 12 days in presence of N-(2-(1H-Indol-3-yl)ethyl)-1-(4-bromobenzoyl)-9H-pyrido(3,4-b)indole-3-carboxamide; assay type: functional, organism-based; conditions: time 12.0 day

CC(=O)O[C@@]12CO[C@@H]1C[C@H](O)[C@@]1(C)C(=O)[C@H](O)C3=C(C)[C@@H](OC(=O)[C@H](O)[C@@H](NC(=O)OC(C)(C)C)c4ccccc4)C[C@@](O)([C@@H](OC(=O)c4ccccc4)[C@H]21)C3(C)C [DOCETAXEL ANHYDROUS]
Activity [1]: Active | CI [2]: 0.37 | Ratio IC50 [3]: 103.5 | CI [4]: 0.32 | CI [5]: 0.23 | IC50 [6]: 1.98 µM | CI [7]: 0.26 | CI [8]: 0.53 | CI [9]: 0.45 | CI [10]: 0.32 | CI [11]: 0.66 | Activity [12]: inactive | CI [13]: 0.38 | Activity [14]: inactive | IC50 [15]: 0.02 µM | Activity [16]: Active | IC50 [17]: 4.68 µM | Activity [18]: Active

Source: ChEMBL document CHEMBL5380808, “Design, Synthesis, and Biological Activity of Marinacarboline Analogues as STAT3 Pathway Inhibitors for Docetaxel-Resistant Triple-Negative Breast Cancer” (J Med Chem, 2023)
